Columns and labels:
[1] = Total chlorine in synthetic pool water exposed to environmental UV light (Example 7); assay type: physicochemical; parameters: unit not given here
[2] = NFPA scale from 1 to 4, NFPA 430, 1995 edition; cited from earlier work
[3] = in water at 20° C.; cited from earlier work
[4] = Off-gassing of roll-compacted granules contaminated with water (Examples 4-6); assay type: physicochemical; settings: Table 9; Example 6
[5] = for effect of additive on off-gassing of trichloroisocyanuric acid: Example 1, 25.5% additive
[6] = Solubility (15-minute dissolution) of granules in balanced swimming pool water, thiosulfate titration; settings: Table 9; Example 6
[7] = Off-gassing of granular formula compositions (Example 3); assay type: physicochemical; settings: Example 3, granules
Procedure: The formula compositions produced in this example were tested for their stability and in some cases for their solubility. The components used included a dissolution aid: disodium cyanurate, and a disintegration agent: microcrystalline cellulose, Lattice® NT (FMC).
Again, blended powder samples were prepared for each formula composition. A 20-gram sample of each test formula composition was placed in a 2.0 inch diameter dye-punch set and compressed under 22 tons of force for 60 minutes using a Carver press. The compressed wafer was reduced to granules using a spatula and a mortar and pestle set. Properly sized granules were collected using a standard sieve shaker.
Approximately one gram of each granular formula composition sample was placed in an eight-ounce sample container. […] The containers were vapor sealed and carefully placed in an approximately 50° C. oven for 24 hours. After the sample set was removed from the oven and cooled, a one-ml aliquot from each sample was placed in 50 ml of deionized water and titrated with 0.100 N sodium thiosulfate. The volume of thiosulfate reagent used to titrate the available halogen in the KI solution was recorded.

[Ca+2].[O-]Cl.[O-]Cl [Calcium hypochlorite, calcium hypochlorite]
Total Cl ([1]; sampling time 0:00 (Hr:Min), 10 ppm available halogen added, outdoor UV light): 0.02
Total Cl ([1]; sampling time 0:05): 6.8
Total Cl ([1]; sampling time 0:10): 6.8
Total Cl ([1]; sampling time 0:15): 7.2
Total Cl ([1]; sampling time 0:20): 6.8
Total Cl ([1]; sampling time 0:25): 6.0
Total Cl ([1]; sampling time 0:30): 5.1
Total Cl ([1]; sampling time 0:40): 5.0
Total Cl ([1]; sampling time 0:50): 3.3
Total Cl ([1]; sampling time 1:00): 3.5
Total Cl ([1]; sampling time 1:15): 2.2
Total Cl ([1]; sampling time 1:30): 2.6
Oxidizer Rating [2]: 3
Solubility [3]: ≅22^3 g/100g (%)

[Li+].[O-]Cl [Lithium hypochlorite]
Oxidizer Rating [2]: 2
Solubility [3]: ≅43^3 g/100g (%)

O=c1[n-]c(=O)n(Cl)c(=O)n1Cl.[K+] [Potassium dichloroisocyanurate anhydrous, potassium dichloroisocyanurate]
Oxidizer Rating [2]: 3
Solubility [3]: 5.0^4 g/100g (%)

O=c1nc([O-])n(Cl)c(=O)n1Cl.[Na+] [Sodium dichloroisocyanurate anhydrous, sodium dichloroisocyanurate]
Oxidizer Rating [2]: 3
Solubility [3]: 12.5^4 g/100g (%)

O=c1n(Cl)c(=O)n(Cl)c(=O)n1Cl [Trichloroisocyanuric acid, 1,3,5-trichloro-1,3,5-triazine-2,4,6-trione]
Off-Gassing Titrant Volume [4]: 2.00 mL
Titrant Volume (off-gassing) ([5]; Table 1, compressed powder wafer, 5 ml 15% KI, approximately 50° C., 24 hours, 0.100 N sodium thiosulfate): 2.65 mL
Oxidizer Rating [2]: 1
Solubility [3]: 1.2^4 g/100g (%)
Solubility Titrant Volume [6]: 1.90 mL

OB(O)O [boric acid]
effect of additive on off-gassing of trichloroisocyanuric acid [5]: do not significantly affect the off-gassing profile of trichloroisocyanuric acid

O=c1nc([O-])nc([O-])[nH]1.[Na+].[Na+] [disodium cyanurate, disodium salt of 1,3,5-triazine-2,4,6-trione]
effect of additive on off-gassing [7]: do not significantly affect the off-gassing profile

O=C([O-])O.[Na+] [sodium bicarbonate]
effect of additive on off-gassing of trichloroisocyanuric acid [5]: increase gassing significantly

From patent US6426317B1, “Stable, high available halogen 1,3,5-triazine-2,4,6-trione compositions having rapid dissolution rates” (Great Lakes Chemical Corporation, priority 1999, dated 2002)
